This is an account of results in the supplement of paper PMC10307832.

Experiment in all cases: relative viability (nuclei count vs DMSO), 5 days (fraction); higher = more cells survive
Compound in the assay “MLN4924 + Luminespib”: NS(=O)(=O)OC[C@@H]1C[C@@H](n2ccc3c(N[C@H]4CCc5ccccc54)ncnc32)C[C@@H]1O [MLN4924] + CCNC(=O)c1noc(-c2cc(C(C)C)c(O)cc2O)c1-c1ccc(CN2CCOCC2)cc1 [Luminespib] (partner 0.01 µM)
The method, boiled down: (§1)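 A single step with final 0.05% Triton X-100, 1% formaldehyde and 1 ug/ml Hoechst fixed the cells and stained nuclei 5 days after treatment. Lung cancer cell lines in 1536-well plates had been treated by pin tool the day after seeding with one drug alone or a fixed anchor-drug dose plus five library-drug doses (not always all listed) in √10 steps, and nuclei were counted on 4× images. Relative viability is the ratio of nuclei in treated wells to nuclei in vehicle wells, taken as the median of duplicate plates.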

Compound in the assay “MLN4924 + OSI-027”: NS(=O)(=O)OC[C@@H]1C[C@@H](n2ccc3c(N[C@H]4CCc5ccccc54)ncnc32)C[C@@H]1O [MLN4924] + COc1cccc2cc(-c3nc([C@H]4CC[C@H](C(=O)O)CC4)n4ncnc(N)c34)[nH]c12 [OSI-027] (partner 0.5 µM)
In a few lines:
as §1

Compound in the assay “MLN4924 + Pemetrexed”: NS(=O)(=O)OC[C@@H]1C[C@@H](n2ccc3c(N[C@H]4CCc5ccccc54)ncnc32)C[C@@H]1O [MLN4924] + Nc1nc2[nH]cc(CCc3ccc(C(=O)N[C@@H](CCC(=O)O)C(=O)O)cc3)c2c(=O)[nH]1 [Pemetrexed] (partner 0.2 µM)
The method, boiled down: as §1

Compound in the assay “GSK126 + Linsitinib”: CC[C@H](C)N1C=C(C2=C(C=C(C=C21)C3=CN=C(C=C3)N4CCNCC4)C(=O)NCC5=C(C=C(NC5=O)C)C)C [GSK126] + C[C@]1(O)C[C@@H](c2nc(-c3ccc4ccc(-c5ccccc5)nc4c3)c3c(N)nccn32)C1 [Linsitinib] (partner 1 µM)
In a few lines:
as §1

Regarding RERF-LC-KJ, the relative viability in the assay with MLN4924 + Luminespib (first compound 0.04 µM) worked out at 1.01; in the assay with MLN4924 + Luminespib (first compound 0.1265 µM), 0.629; with MLN4924 + Luminespib (first compound 0.4 µM), 0.328; in the assay with MLN4924 + Luminespib (first compound 1.265 µM), 0.265; with MLN4924 + Luminespib (first compound 4 µM), 0.272; in the assay with MLN4924 + OSI-027 (first compound 0.04 µM), 0.576. The relative viability turned out to be 0.52 in the assay with MLN4924 + OSI-027 (first compound 0.1265 µM); 0.217 with MLN4924 + OSI-027 (first compound 0.4 µM); 0.175 with MLN4924 + OSI-027 (first compound 1.265 µM); 0.224 with MLN4924 + OSI-027 (first compound 4 µM); 0.523 with MLN4924 + Pemetrexed (first compound 0.04 µM); 0.426 in the assay with MLN4924 + Pemetrexed (first compound 0.1265 µM). In addition, the relative viability is 0.18 with MLN4924 + Pemetrexed (first compound 0.4 µM); 0.208 in the assay with MLN4924 + Pemetrexed (first compound 1.265 µM); 0.224 with MLN4924 + Pemetrexed (first compound 4 µM); 0.908 with GSK126 + Linsitinib (first compound 0.08 µM); 0.909 in the assay with GSK126 + Linsitinib (first compound 0.253 µM); 0.852 with GSK126 + Linsitinib (first compound 0.8 µM). In addition, the relative viability in the assay with GSK126 + Linsitinib (first compound 2.53 µM) came out at 0.884; with GSK126 + Linsitinib (first compound 8 µM), 0.901.

Take SK-LU-1: the relative viability in the assay with MLN4924 + Luminespib (first compound 0.04 µM) was determined as 0.18; with MLN4924 + Luminespib (first compound 0.1265 µM) it was 0.228; with MLN4924 + Luminespib (first compound 0.4 µM), 0.215; with MLN4924 + Luminespib (first compound 1.265 µM), 0.186; with MLN4924 + Luminespib (first compound 4 µM), 0.147; in the assay with MLN4924 + OSI-027 (first compound 0.04 µM) it was 0.366. Besides, the relative viability with MLN4924 + OSI-027 (first compound 0.1265 µM) stood at 0.331; with MLN4924 + OSI-027 (first compound 0.4 µM) it was 0.177; with MLN4924 + OSI-027 (first compound 1.265 µM), 0.128; in the assay with MLN4924 + OSI-027 (first compound 4 µM), 0.139; with MLN4924 + Pemetrexed (first compound 0.04 µM) it was 0.94; in the assay with MLN4924 + Pemetrexed (first compound 0.1265 µM), 0.829. Besides, the relative viability with MLN4924 + Pemetrexed (first compound 0.4 µM) turned out to be 0.26; with MLN4924 + Pemetrexed (first compound 1.265 µM), 0.194; in the assay with MLN4924 + Pemetrexed (first compound 4 µM), 0.212; with GSK126 + Linsitinib (first compound 0.08 µM), 1.31; in the assay with GSK126 + Linsitinib (first compound 0.253 µM), 1.07; with GSK126 + Linsitinib (first compound 0.8 µM) it was 1.11. The relative viability stood at 1.44 in the assay with GSK126 + Linsitinib (first compound 2.53 µM) and 1.25 with GSK126 + Linsitinib (first compound 8 µM).

For SK-MES-1, the relative viability was 0.866 with MLN4924 + Luminespib (first compound 0.04 µM); 0.694 in the assay with MLN4924 + Luminespib (first compound 0.1265 µM); 0.551 with MLN4924 + Luminespib (first compound 0.4 µM); 0.173 with MLN4924 + Luminespib (first compound 1.265 µM); 0.195 with MLN4924 + Luminespib (first compound 4 µM); 0.678 with MLN4924 + OSI-027 (first compound 0.04 µM). In addition, the relative viability in the assay with MLN4924 + OSI-027 (first compound 0.1265 µM) was 0.585; in the assay with MLN4924 + OSI-027 (first compound 0.4 µM), 0.266; with MLN4924 + OSI-027 (first compound 1.265 µM), 0.133; with MLN4924 + OSI-027 (first compound 4 µM), 0.16; with MLN4924 + Pemetrexed (first compound 0.04 µM), 0.968; with MLN4924 + Pemetrexed (first compound 0.1265 µM) it was 0.87. The relative viability in the assay with MLN4924 + Pemetrexed (first compound 0.4 µM) is 0.415; in the assay with MLN4924 + Pemetrexed (first compound 1.265 µM), 0.227; with MLN4924 + Pemetrexed (first compound 4 µM), 0.247; with GSK126 + Linsitinib (first compound 0.08 µM), 1.12; with GSK126 + Linsitinib (first compound 0.253 µM) it was 1.07; in the assay with GSK126 + Linsitinib (first compound 0.8 µM), 0.985. Moreover, the figures for the relative viability with GSK126 + Linsitinib (first compound 2.53 µM) and with GSK126 + Linsitinib (first compound 8 µM) were 0.981 and 1.06, respectively.

Consider SW 1573, for which the relative viability came to 0.259 with MLN4924 + Luminespib (first compound 0.04 µM); 0.365 with MLN4924 + Luminespib (first compound 0.1265 µM); 0.0849 with MLN4924 + Luminespib (first compound 0.4 µM); 0.0812 in the assay with MLN4924 + Luminespib (first compound 1.265 µM); 0.0892 with MLN4924 + Luminespib (first compound 4 µM); 0.684 in the assay with MLN4924 + OSI-027 (first compound 0.04 µM). Moreover, the relative viability with MLN4924 + OSI-027 (first compound 0.1265 µM) stood at 0.666; with MLN4924 + OSI-027 (first compound 0.4 µM), 0.191; in the assay with MLN4924 + OSI-027 (first compound 1.265 µM) it was 0.0527; with MLN4924 + OSI-027 (first compound 4 µM) it was 0.0802; in the assay with MLN4924 + Pemetrexed (first compound 0.04 µM), 0.899; with MLN4924 + Pemetrexed (first compound 0.1265 µM) it was 0.901. Moreover, the relative viability worked out at 0.249 in the assay with MLN4924 + Pemetrexed (first compound 0.4 µM); 0.0884 in the assay with MLN4924 + Pemetrexed (first compound 1.265 µM); 0.0765 with MLN4924 + Pemetrexed (first compound 4 µM); 0.813 in the assay with GSK126 + Linsitinib (first compound 0.08 µM); 0.761 with GSK126 + Linsitinib (first compound 0.253 µM); 0.743 with GSK126 + Linsitinib (first compound 0.8 µM). The relative viability came out at 0.816 with GSK126 + Linsitinib (first compound 2.53 µM) and 0.746 with GSK126 + Linsitinib (first compound 8 µM).
